One test concerns the target human KHK-C (Homo sapiens (Human), UniProt P50053). Briefly: KHK Biochemical Assay (IC50), ADP-Glo, KHK-C. The procedure: (§1) The His-tagged fusion protein was expressed using BL21 (DE3) with IPTG induction and purified using Ni-NTA column followed by dialysis into final buffer containing 25 mM Tris-HCl pH 8.0, 250 mM NaCl.
(§2) KHK Biochemical Assay (IC50)
(§3) Compounds were tested for KHK enzyme inhibition in a high-throughput 384-well assay format using the ADP-Glo assay (Promega) in buffer consisting of 50 mM Hepes (pH 7.4), 140 mM KCl, 5 mM MgCl2 and 0.01% Triton-X. 0.2 nM. […] Compounds were serially diluted (1:3) in DMSO.
(§4) The compounds were pre-incubated with 5 μL of 2× final enzyme concentration for 30 minutes before adding 5 μL of 2× final concentration of ATP and fructose. The plates were incubated at room temperature for 4 hours before adding ADP-Glo reagent to quench the enzyme reaction, followed by incubation at room temperature for 1 hour. The ADP-Glo detection reagent was then added to the plates and luminescence was measured on the Envision plate reader after 1 hour.
For orientation: ADP-Glo first removes unused ATP, then detects ADP through luciferase.

In a further test the target is human KHK-A (Homo sapiens (Human), UniProt P50053). Briefly: KHK Biochemical Assay (IC50), ADP-Glo, KHK-A. Conditions: average of at least two separate assays. The procedure: as §1, §2, §3, §4
Sequence of human KHK-A (P50053 other isoform, or with tags, fused parts or gaps): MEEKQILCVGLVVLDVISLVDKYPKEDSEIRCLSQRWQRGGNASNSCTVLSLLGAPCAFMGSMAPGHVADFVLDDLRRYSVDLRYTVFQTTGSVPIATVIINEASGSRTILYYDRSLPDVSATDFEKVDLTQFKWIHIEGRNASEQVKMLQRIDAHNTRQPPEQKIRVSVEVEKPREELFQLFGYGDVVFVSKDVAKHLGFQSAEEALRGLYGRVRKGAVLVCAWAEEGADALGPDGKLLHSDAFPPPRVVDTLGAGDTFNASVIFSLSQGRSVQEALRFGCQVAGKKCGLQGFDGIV
Where [1] appears, read: ADP-Glo, average of at least two separate assays.
Where [2] appears, read: average of at least two separate assays.

For 30 molecules, IC50 results are on record in patent publication US12410160B2 (Gilead Sciences, Inc., priority 2021, dated 2025).

Several values for one entry are separate records, joined by “and”; a condition that tells them apart may be missing. Identical values can stand only once. Like-named read-outs stand apart in the source and are kept apart here.

Sequence of human KHK-C (P50053 whole entry, the tested form may be a part): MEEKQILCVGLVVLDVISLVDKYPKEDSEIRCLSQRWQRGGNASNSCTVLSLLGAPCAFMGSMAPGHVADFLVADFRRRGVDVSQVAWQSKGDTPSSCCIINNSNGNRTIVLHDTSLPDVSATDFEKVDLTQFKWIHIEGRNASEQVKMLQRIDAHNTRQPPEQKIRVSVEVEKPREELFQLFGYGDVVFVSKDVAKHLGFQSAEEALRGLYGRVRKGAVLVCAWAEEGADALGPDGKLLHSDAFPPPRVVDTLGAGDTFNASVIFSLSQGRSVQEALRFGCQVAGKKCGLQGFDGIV

Consider `C[C@H]1CCN1c1nc2c(c(-c3cccc(C(=O)NCc4ccccc4)c3)n1)CCC2` [Example 218, N-benzyl-3-[2-[(2S)-2-methylazetidin-1-yl]-6,7-dihydro-5H-cyclopenta[d]pyrimidin-4-yl]benzamide], for which the figures for the IC50 on human KHK-C (setting [1]) and against human KHK-A (ADP-Glo) were 485 nM and 418 nM, respectively. Regarding `C[C@H]1CCN1c1nc2c(c(-c3cccc(C(=O)N4CC[C@@H]4C(=O)O)c3)n1)CCC2` [Example 78, (R)-1-(3-(2-((S)-2-methylazetidin-1-yl)-6,7-dihydro-5H-cyclopenta[d]pyrimidin-4-yl)benzoyl)azetidine-2-carboxylic acid], the IC50 (usually the concentration at which inhibition is half-maximal) was 239 nM and 129 nM against human KHK-C (setting [1]); 193 nM and 134 nM against human KHK-A (ADP-Glo). Consider `C[C@H]1CCN1c1nc2c(c(-c3ccc4c(=O)[nH]c(=O)n(C)c4c3)n1)CCC2` [Example 858, (S)-1-methyl-7-(2-(2-methylazetidin-1-yl)-6,7-dihydro-5H-cyclopenta[d]pyrimidin-4-yl)quinazoline-2,4(1H,3H)-dione], for which the values for the IC50 on human KHK-C (setting [1]) and against human KHK-A (ADP-Glo) were 43.6 nM and 18 nM, respectively. Regarding `C[C@H]1CCN1c1nc2c(c(-c3cncc(S(N)(=O)=O)c3)n1)CCC2` [Example 205, 5-[2-[(2S)-2-methylazetidin-1-yl]-6,7-dihydro-5H-cyclopenta[d]pyrimidin-4-yl]pyridine-3-sulfonamide], the results for the 50% inhibitory concentration (IC50) against human KHK-C (setting [1]) and against human KHK-A (ADP-Glo) were 108 nM and 79.9 nM, respectively.

Regarding `C[C@H]1CCN1c1nc2c(c(-c3cccc(NS(=O)(=O)c4cn(C)cn4)c3)n1)CCC2` [Example 73, (S)-1-methyl-N-(3-(2-(2-methylazetidin-1-yl)-6,7-dihydro-5H-cyclopenta[d]pyrimidin-4-yl)phenyl)-1H-imidazole-4-sulfonamide], the IC50 against human KHK-C (setting [1]) was 156 nM; at human KHK-A (ADP-Glo), 175 nM.

Turning to `C[C@H]1CCN1c1nc2c(c(-c3ccc(C4(NC(=O)OC(C)(C)C)CC4)cc3)n1)CCC2` [Example 294, (S)-tert-butyl (1-(4-(2-(2-methylazetidin-1-yl)-6,7-dihydro-5H-cyclopenta[d]pyrimidin-4-yl)phenyl)cyclopropyl)carbamate], the IC50 was found to be 3400 nM on human KHK-C (setting [1]) and 3890 nM against human KHK-A (ADP-Glo). For `COC(=O)N[C@H]1COc2cc(-c3nc(N4C[C@@H](O)[C@@H]4C)nc4c3CCC4(F)F)cc(OC)c21` (single isomer, unassigned) [Example 834], in that order: 17.8 nM and 56.8 nM.

For the molecule “3-(24(2S,3R)-3-fluoro-2-methylazetidin-1-yl)-6,8-dihydro-5H-pyrano[3,4-d]pyrimidin-4-yl)benzenesulfonamide [Example 287]”, the IC50 against human KHK-C (setting [1]) was found to be 1270 nM; at human KHK-A (ADP-Glo), 696 nM. Consider `C[C@H]1CCN1c1nc2c(c(-c3cccc(C45CCC(C4)C5C(=O)O)c3)n1)CCC2` (stereo partly drawn) [Example 115, 1-(3-(2-((S)-2-methylazetidin-1-yl)-6,7-dihydro-5H-cyclopenta[d]pyrimidin-4-yl)phenyl)bicyclo[2.1.1]hexane-5-carboxylic acid], for which the IC50 against human KHK-C (setting [1]) amounted to 109 nM; on human KHK-A (ADP-Glo) it was 94.1 nM. As to `C[C@H]1CCN1c1nc2c(c(-c3ccc(OCc4ccccc4)c(S(C)(=N)=O)c3)n1)CCC2` (stereo partly drawn) [Example 839, (2-(benzyloxy)-5-(2-((S)-2-methylazetidin-1-yl)-6,7-dihydro-5H-cyclopenta[d]pyrimidin-4-yl)phenyl)(imino)(methyl)4^6-sulfanone], the IC50 was 15.9 nM at human KHK-C (setting [1]) and 15.8 nM against human KHK-A (ADP-Glo).

With `C[C@H]1CCN1c1nc2c(c(-c3ccc(O)cc3)n1)CCC2` [Example 262, 4-[2-[(2S)-2-methylazetidin-1-yl]-6,7-dihydro-5H-cyclopenta[d]pyrimidin-4-yl]phenol], the IC50 on human KHK-C (setting [1]) was 141 nM; on human KHK-A (ADP-Glo), 180 nM. In the case of `C[C@H]1CCN1c1nc2c(c(-c3ccc(C4(N5CCN(C)CC5)CC4)cc3)n1)CCC2` [Example 302, (S)-2-(2-methylazetidin-1-yl)-4-(4-(1-(4-methylpiperazin-1-yl)cyclopropyl)phenyl)-6,7-dihydro-5H-cyclopenta[d]pyrimidine], the IC50 stood at 849 nM at human KHK-C (setting [1]) and 636 nM at human KHK-A (ADP-Glo). For the molecule `C[C@H]1[C@H](O)CN1c1nc2c(c(-c3cccc(C(N)=O)c3)n1)CCC2` [Example 32], the IC50 is 125 nM on human KHK-C (setting [1]) and 86.8 nM at human KHK-A (ADP-Glo).

In the case of `NC1(c2ccc(-c3nc(N4CC[C@H]4C(F)F)nc4c3CCC4(F)F)cc2)COC1` (single isomer, unassigned) [Example 688], the values for the IC50 at human KHK-C (setting [2]) and on human KHK-A were 59.6 nM and 96.5 nM, respectively. On to `C[C@H]1CCN1c1nc2c(c(-c3cccc(S(=O)(=O)N(C)C)c3)n1)CCC2` [Example 215, N,N-dimethyl-3-[2-[(2S)-2-methylazetidin-1-yl]-6,7-dihydro-5H-cyclopenta[d]pyrimidin-4-yl]benzenesulfonamide], for which the IC50 is 106 nM at human KHK-C (setting [1]) and 78.9 nM against human KHK-A (ADP-Glo). With `CCN1C(=O)NC2(COc3cc(-c4nc(N5C[C@@H](O)[C@@H]5C)nc5c4CCC5(F)F)ccc32)C1=O` (stereo partly drawn) [Example 689, 6-[7,7-difluoro-2-[(2S,3R)-3-hydroxy-2-methyl-azetidin-1-yl]-5,6-dihydrocyclopenta[d]pyrimidin-4-yl]-3′-ethyl-spiro[2H-benzofuran-3,5′-imidazolidine]-2′,4′-dione], the IC50 on human KHK-C (setting [2]) was found to be 0.2 nM; at human KHK-A, 14.2 nM. In the case of `C[C@H]1CCN1c1nc2c(c(-c3ccc(C(N)=O)s3)n1)CCC2` [Example 56, (S)-5-(2-(2-methylazetidin-1-yl)-6,7-dihydro-5H-cyclopenta[d]pyrimidin-4-yl)thiophene-2-carboxamide], the IC50 on human KHK-C (setting [1]) was found to be 7.7 nM; at human KHK-A (ADP-Glo), 3.8 nM. For the molecule `C[C@H]1[C@@H](F)CN1c1nc(-c2ccc3c(c2)COC[C@@H]3NS(C)(=O)=O)c2c(n1)C(F)(F)CC2` [Example 583, N—((R)-7-(7,7-difluoro-2-((28,38)-3-fluoro-2-methylazetidin-1-yl)-6,7-dihydro-5H-cyclopenta[d]pyrimidin-4-yl)isochroman-4-yl)methanesulfonamide], the values for the IC50 at human KHK-C (setting [2]) and on human KHK-A were 1.3 nM and 8.7 nM, respectively. On to `C[C@H]1CCCN1c1nc(-c2ccc(C3(N)COC3)cc2)c2c(n1)C(F)(F)CC2` [Example 570, (S)-3-(4-(7,7-difluoro-2-(2-methylpyrrolidin-1-yl)-6,7-dihydro-5H-cyclopenta[d]pyrimidin-4-yl)phenyl)oxetan-3-amine], for which the IC50 at human KHK-C (setting [2]) was 10.9 nM; on human KHK-A it was 25 nM.

Turning to `C[C@H]1CCN1c1nc2c(c(-c3ccccc3O)n1)CCC2` [Example 260, 2-[2-[(2S)-2-methylazetidin-1-yl]-6,7-dihydro-5H-cyclopenta[d]pyrimidin-4-yl]phenol], the IC50 was found to be 633 nM at human KHK-C (setting [1]) and 746 nM against human KHK-A (ADP-Glo).

Regarding `C[C@H]1CCN1c1nc2c(c(-c3ccc(N4CCOCC4)nc3)n1)CCC2` [Example 291, (S)-4-(5-(2-(2-methylazetidin-1-yl)-6,7-dihydro-5H-cyclopenta[d]pyrimidin-4-yl)pyridin-2-yl)morpholine], the concentration for half-maximal inhibition (IC50) on human KHK-C (setting [1]) stood at 98 nM; at human KHK-A (ADP-Glo), 141 nM.

At human KHK-C (setting [1]), `C[C@H]1[C@H](O)CN1c1nc(-c2ccc3c(c2)CC(C)(C)C3NS(C)(=O)=O)c2c(n1)C(F)(F)CC2` (stereo partly drawn) [Example 816, N-[5-[7,7-difluoro-2-[(2S,3R)-3-hydroxy-2-methyl-azetidin-1-yl]-5,6-dihydrocyclopenta[d]pyrimidin-4-yl]-2,2-dimethyl-indan-1-yl]methanesulfonamide] showed an IC50 of 23.4 nM. For `C[C@H]1[C@H](O)CN1c1nc(-c2ccc3c(c2)CC[C@]32COCC(=O)N2)c2c(n1)C(F)(F)CC2` (single isomer, unassigned) [Example 550], at human KHK-C (setting [2]), the midpoint of inhibition, the IC50, lay at 5 nM.

Turning to `C[C@@H]1N(c2nc(-c3ccc4c(c3)S(=O)(=O)C[C@@H]4NS(C)(=O)=O)c3c(n2)C(F)(F)CC3)CC1(F)F` (single isomer, unassigned) [Example 681], the IC50 at human KHK-C (setting [2]) is 0.5 nM.

For the molecule `NC(=O)c1ccc(-c2nc(N3CC4(CCC4)C3)nc3c2CCC3)cc1` [Example 416, 4-(2-(2-azaspiro[3.3]heptan-2-yl)-6,7-dihydro-5H-cyclopenta[d]pyrimidin-4-yl)benzamide], the IC50 against human KHK-C (setting [2]) is above 5000 nM.

For the molecule `C[C@H]1CCN1c1nc2c(c(-c3ccc(Cl)c(S(C)(=N)=O)c3)n1)CCC2` (stereo partly drawn) [Example 727], the half-inhibitory concentration (IC50) against human KHK-C (setting [2]) was above 500 nM.

`C[C@H]1CCN1c1nc(N2CC3CC3C2)cc(C(F)(F)F)n1` (stereo partly drawn) [Reference Compound 1b, 3-(2-((S)-2-methylazetidin-1-yl)-6-(trifluoromethyl)pyrimidin-4-yl)-3-azabicyclo[3.1.0]hexane, reference compound] registered an IC50 at human KHK-C of 13100 nM. The molecule `NC1(c2ccc(-c3nc(N4C[C@@H](O)[C@@H]4CF)nc4c3CCC4(F)F)cc2)COC1` [Example 677, (2R,3R)-1-[4-[4-(3-aminooxetan-3-yl)phenyl]-7,7-difluoro-5,6-dihydroeyelopenta[d]pyrimidin-2-yl]-2-(fluoromethyl)azetidin-3-ol] came in with an IC50 against human KHK-C (setting [2]) of 4.8 nM.

For `CS(=O)(=O)N[C@H]1COc2cc(-c3nc(N4CC[C@H]4C(F)F)nc4c3CCC4(F)F)ccc21` (single isomer, unassigned) [Example 546], it took 23.9 nM to reach half-maximal inhibition at human KHK-C (setting [2]) (IC50). `COc1c(F)cc(-c2nc(N3C[C@@H](O)[C@@H]3C)nc3c2CCC3(F)F)cc1S(C)(=N)=O` (stereo partly drawn) [Example 535, (5-(7,7-difluoro-2-((2S,3R)-3-hydroxy-2-methylazetidin-1-yl)-6,7-dihydro-5H-cyclopenta[d]pyrimidin-4-yl)-3-fluoro-2-methoxyphenyl)(imino)(methyl)-λ^6-sulfanone] yielded an IC50 against human KHK-C (setting [2]) of 15.8 nM.
